The values below come from ChEMBL document CHEMBL1201862, “PubChem BioAssay data set” (2004).

Among the test systems are A498; CAKI-1; CCRF-CEM; EKVX; HCT-15; K562; MDA-MB-231; MDA-N; NCI-H23; NCI-H522; NCI/ADR-RES; OVCAR-4; OVCAR-8; PC-3; RPMI-8226; RXF 393; SF-295; SK-MEL-28; SK-MEL-2; UACC-62.
Assay in all cases: NCI anticancer screen, dose series, 48 h

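Exposure lasted 48 hours, with cells grown in 96-well plates and compounds tested at five concentrations. GI50 = concentration required for 50% inhibition of growth.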 Active and inactive are the calls of the source. Cut-off read from the data, not from the text of the source: active = GI50 up to about 1.1 µM and inactive = higher.

On to `N#Cc1ccc(OC(=O)c2ccc(NC(=N)N)cc2)cc1.c1ccncc1`, for which the GI50 is > 100 µM (inactive) in the experiment with A498; 80 µM (inactive) in the experiment with CAKI-1; 22.2 µM (inactive) with CCRF-CEM; > 100 µM (inactive) in the experiment on EKVX; 46.9 µM in the experiment with HCT-15; 42 µM (inactive) in the experiment with K562. Besides, the GI50 is > 100 µM (inactive) in the experiment on MDA-MB-231; 64.3 µM (inactive) in the experiment on MDA-N; > 100 µM (inactive) in the experiment with NCI-H23; 30 µM (inactive) with NCI-H522; > 100 µM (inactive) with NCI/ADR-RES; > 100 µM (inactive) in the experiment with OVCAR-4. Further, the GI50 in the experiment on OVCAR-8 is > 100 µM (inactive); in the experiment with PC-3, > 100 µM (inactive); in the experiment with RPMI-8226, 40.8 µM (inactive); with RXF 393, > 100 µM (inactive); in the experiment with SF-295, > 100 µM (inactive); in the experiment with SK-MEL-28, > 100 µM (inactive). For the same compound, the GI50 in the experiment with SK-MEL-2 and with UACC-62 was > 100 µM (inactive) each time.

As for `COc1cccc2cc(C(=O)NC34CC5CC(CC(C5)C3)C4)c(=N)oc12`, the GI50 with A498 is > 100 µM (inactive); in the experiment with CAKI-1, 99.5 µM (inactive); in the experiment with CCRF-CEM, 8.04 µM (inactive); in the experiment with EKVX it was > 61.8 µM (inactive); in the experiment on HCT-15, 49.8 µM; in the experiment with K562, 50.9 µM (inactive). Further, the GI50 in the experiment on MDA-MB-231 was > 100 µM (inactive); in the experiment with MDA-N, > 100 µM (inactive); in the experiment on NCI-H23 it was > 100 µM (inactive); in the experiment with NCI-H522 it was 23.4 µM (inactive); with NCI/ADR-RES, > 86.1 µM (inactive); in the experiment on OVCAR-4, > 60.4 µM (inactive). The GI50 was 23.8 µM (inactive) in the experiment on OVCAR-8; 56.6 µM (inactive) in the experiment with PC-3; 25.6 µM (inactive) with RPMI-8226; 33.6 µM (inactive) in the experiment on RXF 393; 68.5 µM (inactive) in the experiment with SF-295; > 71 µM (inactive) in the experiment with SK-MEL-28. In addition, the GI50 in the experiment with SK-MEL-2 is > 95.1 µM (inactive); with UACC-62, > 100 µM (inactive).

On to `O=C1Nc2ccccc2/C1=N/NC(=S)Nc1ccc(Cl)cc1`, for which the GI50 is 18.3 µM (inactive) in the experiment with A498; 11.3 µM (inactive) with CAKI-1; 22.8 µM (inactive) in the experiment on CCRF-CEM; 36.2 µM (inactive) in the experiment with EKVX; 20.2 µM with HCT-15; 29.9 µM (inactive) in the experiment on K562. Also, the GI50 in the experiment on MDA-MB-231 was 26.7 µM (inactive); in the experiment on MDA-N, 63.7 µM (inactive); in the experiment with NCI-H23, 57.4 µM (inactive); with NCI-H522, 57 µM (inactive); in the experiment on NCI/ADR-RES, 12.1 µM (inactive); in the experiment on OVCAR-4, 30.4 µM (inactive). For the same compound, the GI50 was 18.2 µM (inactive) with OVCAR-8; 33.7 µM (inactive) with PC-3; 49.7 µM (inactive) in the experiment with RPMI-8226; 39.4 µM (inactive) in the experiment with RXF 393; 23.7 µM (inactive) in the experiment on SF-295; > 100 µM (inactive) with SK-MEL-28. The GI50 in the experiment with SK-MEL-2 is 24.5 µM (inactive); with UACC-62 it was 50.7 µM (inactive).

As for `COC(=O)Nc1nc2cc(S(=O)(=O)n3nnc4ccccc43)ccc2[nH]1`, the GI50 with A498 was 57 µM (inactive); with CAKI-1, 54.2 µM (inactive); with CCRF-CEM, > 100 µM (inactive); with EKVX, > 100 µM (inactive); in the experiment with HCT-15, > 100 µM; with K562, > 100 µM (inactive). Besides, the GI50 was 43.5 µM (inactive) in the experiment with MDA-MB-231; > 100 µM (inactive) in the experiment on MDA-N; 41.7 µM (inactive) in the experiment with NCI-H23; 36.8 µM (inactive) in the experiment on NCI-H522; > 100 µM (inactive) in the experiment with NCI/ADR-RES; > 100 µM (inactive) in the experiment with OVCAR-4. The GI50 in the experiment on OVCAR-8 was > 100 µM (inactive); in the experiment on PC-3 it was 35 µM (inactive); with RPMI-8226, 0.708 µM (active); with RXF 393 it was 14.6 µM (inactive); in the experiment on SF-295, 21.4 µM (inactive); with SK-MEL-28 it was > 100 µM (inactive). In addition, the GI50 in the experiment with SK-MEL-2 was > 100 µM (inactive); with UACC-62, 41.5 µM (inactive).

As for `CCN(CC)C1Oc2cc3c(cc2C(c2cccc(OC)c2O)C1C)OCO3` (stereo not given), the GI50 with A498 was 2.36 µM (inactive); in the experiment on CAKI-1 it was 5.6 µM (inactive); with CCRF-CEM, 3.94 µM (inactive); in the experiment with EKVX, 10.6 µM (inactive); with HCT-15 it was 4.79 µM; in the experiment with K562, 3.75 µM (inactive). Also, the GI50 with MDA-MB-231 is 10.5 µM (inactive); with MDA-N, 1.7 µM (inactive); in the experiment on NCI-H23, 5.79 µM (inactive); in the experiment on NCI-H522, 2.41 µM (inactive); in the experiment with NCI/ADR-RES it was 4.62 µM (inactive); in the experiment on OVCAR-4, 7.14 µM (inactive). Besides, the GI50 in the experiment with OVCAR-8 was 13.7 µM (inactive); in the experiment with PC-3, 3.63 µM (inactive); with RPMI-8226 it was 3.24 µM (inactive); with RXF 393 it was 4.5 µM (inactive); in the experiment with SF-295, 3.08 µM (inactive); in the experiment on SK-MEL-28 it was 5.96 µM (inactive). In addition, the GI50 is 4.52 µM (inactive) in the experiment with SK-MEL-2 and 5.24 µM (inactive) in the experiment on UACC-62.

For the compound `Cc1cc2nc(CC(C(F)(F)F)C(F)(F)F)oc2cc1C`, the GI50 in the experiment with A498 was 5.71 µM (inactive); in the experiment with CAKI-1, 2.07 µM (inactive); in the experiment on CCRF-CEM, 0.016 µM (active); with EKVX, 2.24 µM (inactive); in the experiment on HCT-15 it was 3.47 µM; in the experiment on K562, 0.0931 µM (active). The GI50 in the experiment with MDA-MB-231 was 2.45 µM (inactive); in the experiment with MDA-N it was 1.91 µM (inactive); in the experiment with NCI-H23, 1.37 µM (inactive); in the experiment with NCI-H522, 0.184 µM (active); in the experiment with NCI/ADR-RES, 1.71 µM (inactive); in the experiment with OVCAR-4 it was 2.19 µM (inactive). Further, the GI50 in the experiment on OVCAR-8 was 1.12 µM (active); in the experiment with PC-3, 1.96 µM (inactive); in the experiment on RPMI-8226, 0.0931 µM (active); with RXF 393 it was 2.51 µM (inactive); in the experiment on SF-295 it was 4.76 µM (inactive); in the experiment on SK-MEL-28, 3.24 µM (inactive). Besides, the GI50 is 2.81 µM (inactive) in the experiment on SK-MEL-2 and 1.42 µM (inactive) in the experiment on UACC-62.

In the case of `COc1cc2c(cc1OC(=O)c1cc3ccccc3[nH]1)N=C[C@@H]1CCCN1C2=O`, the GI50 is 0.219 µM (active) in the experiment with A498; 0.294 µM (active) in the experiment with CAKI-1; 0.255 µM (active) in the experiment on CCRF-CEM; 0.841 µM (active) with EKVX; 0.475 µM in the experiment with HCT-15; 0.306 µM (active) in the experiment on K562. Further, the GI50 is 0.418 µM (active) with MDA-MB-231; 0.194 µM (active) in the experiment on MDA-N; 0.37 µM (active) with NCI-H23; 0.157 µM (active) in the experiment with NCI-H522; 0.461 µM (active) in the experiment on NCI/ADR-RES; 0.409 µM (active) in the experiment on OVCAR-4. Besides, the GI50 in the experiment on OVCAR-8 was 0.462 µM (active); with PC-3 it was 0.585 µM (active); in the experiment with RPMI-8226, 0.334 µM (active); with RXF 393 it was 0.165 µM (active); in the experiment with SF-295, 1.03 µM (active); with SK-MEL-28, 0.531 µM (active). The GI50 in the experiment with SK-MEL-2 was 0.224 µM (active); in the experiment on UACC-62 it was 0.269 µM (active).

As to `CCN(CC)C1Oc2cc3c(cc2C(c2cc(OC)c(O)c(OC)c2)C1C)OCO3` (stereo not given), the GI50 was 24.6 µM (inactive) in the experiment on A498; 12.5 µM (inactive) with CAKI-1; 7.29 µM (inactive) with CCRF-CEM; 36.8 µM (inactive) with EKVX; 12.6 µM in the experiment with HCT-15; 2.98 µM (inactive) in the experiment with K562. Moreover, the GI50 in the experiment with MDA-MB-231 was 18.8 µM (inactive); in the experiment on MDA-N, 1.98 µM (inactive); in the experiment with NCI-H23, 28.8 µM (inactive); in the experiment with NCI-H522 it was 3.1 µM (inactive); in the experiment on NCI/ADR-RES, 5.92 µM (inactive); in the experiment with OVCAR-4 it was 22.3 µM (inactive). Moreover, the GI50 with OVCAR-8 is 14.8 µM (inactive); with PC-3, 14.4 µM (inactive); in the experiment on RPMI-8226, 7.14 µM (inactive); in the experiment on RXF 393, 6.95 µM (inactive); with SF-295, 5.22 µM (inactive); in the experiment with SK-MEL-28 it was 14.2 µM (inactive). Further, the GI50 in the experiment on SK-MEL-2 is 18.7 µM (inactive); in the experiment on UACC-62, 4.49 µM (inactive).

`COC(OC)C1(c2ccccc2)Oc2ccccc2C1=O` (stereo not given): the GI50 in the experiment on A498 was > 100 µM (inactive); in the experiment with CAKI-1, > 100 µM (inactive); in the experiment with CCRF-CEM it was > 100 µM (inactive); with EKVX it was > 100 µM (inactive); with HCT-15 it was > 100 µM; in the experiment with K562 it was 65.2 µM (inactive). For the same compound, the GI50 in the experiment on MDA-MB-231 was > 100 µM (inactive); in the experiment on MDA-N, > 100 µM (inactive); in the experiment with NCI-H23, 50.1 µM (inactive); in the experiment with NCI-H522 it was > 100 µM (inactive); in the experiment on NCI/ADR-RES, 80.7 µM (inactive); in the experiment on OVCAR-4 it was > 100 µM (inactive). In addition, the GI50 was > 100 µM (inactive) in the experiment with OVCAR-8; > 100 µM (inactive) in the experiment on PC-3; > 100 µM (inactive) in the experiment with RPMI-8226; > 100 µM (inactive) with RXF 393; 90.2 µM (inactive) in the experiment on SF-295; > 100 µM (inactive) in the experiment with SK-MEL-28. In addition, the GI50 in the experiment with SK-MEL-2 and in the experiment on UACC-62 was > 100 µM (inactive) throughout.

As for `O=[N+]([O-])c1cc(CCl)ccc1CCl`, the GI50 in the experiment on A498 was 6.59 µM (inactive); in the experiment with CAKI-1, 1.35 µM (inactive); with CCRF-CEM, 0.504 µM (active); with EKVX, 1.82 µM (inactive); with HCT-15, 1.84 µM; in the experiment with K562, 2.24 µM (inactive). In addition, the GI50 in the experiment with MDA-MB-231 was 2.33 µM (inactive); in the experiment on MDA-N, 1.87 µM (inactive); in the experiment on NCI-H23, 2.16 µM (inactive); in the experiment on NCI-H522 it was 1.73 µM (inactive); with NCI/ADR-RES, 2.7 µM (inactive); in the experiment with OVCAR-4, 1.76 µM (inactive). The GI50 is 2.4 µM (inactive) with OVCAR-8; 1.64 µM (inactive) in the experiment with PC-3; 1.48 µM (inactive) in the experiment on RPMI-8226; 0.585 µM (active) in the experiment with RXF 393; 6.82 µM (inactive) with SF-295; 2.06 µM (inactive) with SK-MEL-28. In addition, the GI50 in the experiment on SK-MEL-2 is 2.72 µM (inactive); in the experiment on UACC-62 it was 4.41 µM (inactive).
